Common to all, as to experiment: Weeding effect in post-emergence stage
Holding throughout (assay type): in vivo
Settings in all cases: active ingredient 2000 g/ha, 3 weeks after application, fresh weight control rate

One experiment has as its system Abutilon theophrasti. The source says: (§1) The activity level criteria for plant damage (i.e., growth control rate) are as follows:
(§2) The above growth control rates are fresh weight control rates.
(§3) Experiment on weeding effect in post-emergence stage: monocotyledonous and dicotyledonous weed seeds and major crop seeds (wheat, corn, rice, soybean, cotton, oilseed rape, millet, sorghum) were placed in plastic pots filled with soil, then covered with 0.5-2 cm of soil, allowed to grow in a good greenhouse environment. After 2 weeks of sowing, the test plants were treated in the 2-3 leaf stage. The tested compounds of the present invention were respectively dissolved in acetone at the dosage of 2000, 1000, 500, 250, 125 g/ha, then added with Tween 80 and 1.5 liter/ha of emulsifiable concentrate of methyl oleate as synergist, diluted with a certain amount of water to obtain a solution with a certain concentration, and sprayed with a spray tower onto the plants. After the application, the plants were cultured for 3 weeks in the greenhouse, and then the experimental results were listed in Table 1.

Experiment [1] has as its system Amaranthus retroflexus L.
From the text: as §1, §2, §3

The subject of the next experiment is Chenopodium album.
From the text: as §1, §2, §3

Another experiment deals with Descurainia sophia.
From the text: as §1, §2, §3

Regarding `COc1ccc(-c2nccc(C(=O)Nc3nnnn3C)c2Cl)cc1` [Compound 1-30], the “Weeding effect, activity level (growth control rate), Abutilon theophrasti” value (“Weeding effect … Abutilon theophrasti” for short) in the experiment with Abutilon theophrasti is on record as 5 (Level 5: growth control rate is above 85%). For the same compound, the “Weeding effect, activity level (growth control rate), Amaranthus retroflexus L.” value (from here on “Weeding effect … Amaranthus retroflexus L.”) in experiment [1] is given as 5 (Level 5: growth control rate is above 85%). Further, the “Weeding effect, activity level (growth control rate), Chenopodium album” value (shortened to “Weeding effect … Chenopodium album”) in the experiment on Chenopodium album is recorded as 5 (Level 5: growth control rate is above 85%). In addition, in the experiment with Descurainia sophia, the “Weeding effect, activity level (growth control rate), Descurainia sophia” value (“Weeding effect … Descurainia sophia” below) is reported as 5 (Level 5: growth control rate is above 85%).

As for `Cn1nnnc1NC(=O)c1ccnc(-c2ccccc2OC(F)(F)F)c1Cl` [Compound 1-31], the “Weeding effect … Abutilon theophrasti” value with Abutilon theophrasti is given as 5 (Level 5: growth control rate is above 85%). Moreover, the “Weeding effect … Amaranthus retroflexus L.” value in experiment [1] is given as 5 (Level 5: growth control rate is above 85%). Besides, the “Weeding effect … Chenopodium album” value in the experiment on Chenopodium album is on record as 5 (Level 5: growth control rate is above 85%). For the same compound, the “Weeding effect … Descurainia sophia” value in the experiment with Descurainia sophia is 5 (Level 5: growth control rate is above 85%).

As for `Cn1nnnc1NC(=O)c1ccnc(-c2cccc(OC(F)(F)F)c2)c1Cl` [Compound 1-32], the “Weeding effect … Abutilon theophrasti” value in the experiment with Abutilon theophrasti is reported as 5 (Level 5: growth control rate is above 85%). In experiment [1], the “Weeding effect … Amaranthus retroflexus L.” value is 5 (Level 5: growth control rate is above 85%). For the same compound, the “Weeding effect … Chenopodium album” value with Chenopodium album was 5 (Level 5: growth control rate is above 85%). Further, in the experiment on Descurainia sophia, the “Weeding effect … Descurainia sophia” value is on record as 5 (Level 5: growth control rate is above 85%).

Regarding `Cn1nnnc1NC(=O)c1ccnc(-c2ccc(OC(F)(F)F)cc2)c1Cl` [Compound 1-33], the “Weeding effect … Abutilon theophrasti” value in the experiment on Abutilon theophrasti was 5 (Level 5: growth control rate is above 85%). For the same compound, the “Weeding effect … Amaranthus retroflexus L.” value in experiment [1] is recorded as 5 (Level 5: growth control rate is above 85%). Further, in the experiment on Chenopodium album, the “Weeding effect … Chenopodium album” value is on record as 5 (Level 5: growth control rate is above 85%). Besides, the “Weeding effect … Descurainia sophia” value in the experiment on Descurainia sophia was 5 (Level 5: growth control rate is above 85%).

Take `Cn1nnnc1NC(=O)c1ccnc(-c2ccccc2O)c1Cl` [Compound 1-34]: the “Weeding effect … Abutilon theophrasti” value with Abutilon theophrasti is recorded as 5 (Level 5: growth control rate is above 85%). Moreover, the “Weeding effect … Amaranthus retroflexus L.” value in experiment [1] was 5 (Level 5: growth control rate is above 85%). Further, the “Weeding effect … Chenopodium album” value in the experiment with Chenopodium album is on record as 5 (Level 5: growth control rate is above 85%). Also, the “Weeding effect … Descurainia sophia” value in the experiment with Descurainia sophia is reported as 5 (Level 5: growth control rate is above 85%).

Turning to `Cn1nnnc1NC(=O)c1ccnc(-c2ccc(O)cc2)c1Cl` [Compound 1-35], the “Weeding effect … Abutilon theophrasti” value with Abutilon theophrasti was 5 (Level 5: growth control rate is above 85%). Besides, in experiment [1], the “Weeding effect … Amaranthus retroflexus L.” value is given as 5 (Level 5: growth control rate is above 85%). For the same compound, the “Weeding effect … Chenopodium album” value in the experiment with Chenopodium album was 5 (Level 5: growth control rate is above 85%). Also, the “Weeding effect … Descurainia sophia” value with Descurainia sophia was 5 (Level 5: growth control rate is above 85%).

Take `Cn1nnnc1NC(=O)c1ccnc(-c2cccc(CO)c2)c1Cl` [Compound 1-36]: the “Weeding effect … Abutilon theophrasti” value with Abutilon theophrasti is 5 (Level 5: growth control rate is above 85%). The “Weeding effect … Amaranthus retroflexus L.” value in experiment [1] is 5 (Level 5: growth control rate is above 85%). The “Weeding effect … Chenopodium album” value with Chenopodium album is listed as 5 (Level 5: growth control rate is above 85%). For the same compound, the “Weeding effect … Descurainia sophia” value with Descurainia sophia is listed as 5 (Level 5: growth control rate is above 85%).

Take `Cn1nnnc1NC(=O)c1ccnc(-c2ccc(N)cc2)c1Cl` [Compound 1-37]: the “Weeding effect … Abutilon theophrasti” value in the experiment on Abutilon theophrasti is on record as 5 (Level 5: growth control rate is above 85%). In addition, the “Weeding effect … Amaranthus retroflexus L.” value in experiment [1] is on record as 5 (Level 5: growth control rate is above 85%). For the same compound, the “Weeding effect … Chenopodium album” value in the experiment with Chenopodium album was 5 (Level 5: growth control rate is above 85%). Moreover, in the experiment on Descurainia sophia, the “Weeding effect … Descurainia sophia” value is recorded as 5 (Level 5: growth control rate is above 85%).

The record behind these values is US12497365B2, “4-pyridinyl formamide compound or derivative thereof, preparation method therefor, herbicidal composition and use thereof” (Qingdao Kingagroot Chemical Compound Co., Ltd., priority 2019, dated 2025).
